{
  "source": "paper PMC3501516",
  "about": "“Anti-Diabetic Efficacy and Impact on Amino Acid Metabolism of GRA1, a Novel Small-Molecule Glucagon Receptor Antagonist” (PLoS ONE, 2012)",
  "key": {"rhesus monkey liver": {"test_system": "rhesus monkey liver", "assay": "Hepatic gene expression (Affymetrix microarray of liver biopsies) in rhesus monkeys", "assay_type": "in vivo", "details": "30 mg/kg twice daily", "protocol": "Hepatic gene expression was assessed by liver biopsy in adult rhesus monkeys that had been treated twice daily for 1 and 6 days with 30 mg/kg GRA1 or vehicle. The compound was administered to the animals orally in yogurt or a similar treat while they were housed in their home cages. The animals were fasted for approximately 16 h prior to performing liver biopsies laparoscopically, under anesthesia. On biopsy days, animals received their morning doses of GRA1 2 h before the biopsies were performed.\nTotal RNA was processed for Affymetrix microarray analysis as previously described. Briefly, total RNA was isolated from frozen tissues after homogenizing in TRIzol reagent (Invitrogen, Carlsbad, CA) and processed using RNeasy kits (QIAGEN, Valencia, CA) according to manufacturers' instructions. Sample amplification, labeling, and microarray processing were performed by the Covance Genomics Laboratory in Seattle, WA using the Affymetrix catalog Rhesus array (Affymetrix, Santa Clara, CA). One-way ANOVA analyses were performed with Matlab (The Mathworks, Natick, MA). Probesets had to pass a pre-filter of Affymetrix MAS5 present call p value <0.05 in >50% of the samples to qualify for further analysis. Differentially expressed genes (probesets) were selected with 1.2-fold change and ANOVA p value <0.05."}, "hepatic hGCGR": {"target": "T1, hepatic hGCGR (Homo sapiens, UniProt P47871)", "T1 construct": "a transgenic line of mouse that expresses the hGCGR instead of the murine GCGR; from tissue; host or cells: liver of hGCGR mouse, in vivo", "T1 sequence (P47871 26-477)": "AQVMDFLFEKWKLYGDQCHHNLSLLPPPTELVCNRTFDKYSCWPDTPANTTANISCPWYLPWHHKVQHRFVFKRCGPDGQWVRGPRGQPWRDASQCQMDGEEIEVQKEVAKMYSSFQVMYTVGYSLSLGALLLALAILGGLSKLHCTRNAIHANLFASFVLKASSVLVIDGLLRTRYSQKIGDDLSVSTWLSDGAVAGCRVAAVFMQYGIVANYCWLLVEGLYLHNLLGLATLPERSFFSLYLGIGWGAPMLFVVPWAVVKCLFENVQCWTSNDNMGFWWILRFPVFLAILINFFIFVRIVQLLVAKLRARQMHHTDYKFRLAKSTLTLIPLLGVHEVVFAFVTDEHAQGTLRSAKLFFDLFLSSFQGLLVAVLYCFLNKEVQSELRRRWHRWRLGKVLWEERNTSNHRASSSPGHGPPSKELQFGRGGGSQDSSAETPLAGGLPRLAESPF", "assay": "In vivo inhibition of hepatic 125I-glucagon binding (hGCGR occupancy) in hGCGR mouse", "protocol": "Inhibition of ^125I-glucagon binding to hGCGR (a measure of hGCGR occupancy by antagonist) was assayed in hGCGR mouse liver in vivo as previously described. Glycogen content of perfused hGCGR mouse liver was measured as previously described. In brief, livers were perfused ex vivo with Ringers solution containing 6.7 mM [2-^13C]pyruvate while ^13C content (indicative of accumulated [^13C]glycogen) was monitored dynamically by nuclear magnetic resonance imaging.\nFigure 2 In vivo inhibition of hepatic ^125I-glucagon binding in the hGCGR mouse following (A) acute and (B) chronic dosing with GRA1. The data are mean (±SEM) percent reductions in liver ^125I-glucagon content measured (A) 1, 3, 5, and 8 h after a single oral dose of 3 mg/kg GRA1, and (B) after treatment for 30 days with control diet or food/drug admixtures that provided 3, 6, 10, or 30 mg/kg·day GRA1."}, "[1]": {"target": "T2, VPAC2R (vasoactive adenylate cyclase-activating polypeptide receptor type 2) (Homo sapiens, UniProt P41587)", "T2 construct": "expressed in transfected cells", "T2 sequence (P41587 24-438)": "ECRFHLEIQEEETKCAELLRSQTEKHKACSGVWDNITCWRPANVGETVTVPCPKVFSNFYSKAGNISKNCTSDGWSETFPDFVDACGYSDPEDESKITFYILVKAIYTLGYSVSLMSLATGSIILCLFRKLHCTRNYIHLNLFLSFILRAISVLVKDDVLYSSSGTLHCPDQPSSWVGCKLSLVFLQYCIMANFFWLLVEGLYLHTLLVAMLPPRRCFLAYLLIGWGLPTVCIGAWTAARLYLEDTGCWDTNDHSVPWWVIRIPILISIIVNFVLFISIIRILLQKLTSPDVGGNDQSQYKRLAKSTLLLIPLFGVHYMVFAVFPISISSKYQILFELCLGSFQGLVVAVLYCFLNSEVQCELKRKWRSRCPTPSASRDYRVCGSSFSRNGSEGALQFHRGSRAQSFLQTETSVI", "assay": "Inhibition of agonist-stimulated cAMP production in CHO cells expressing VPAC2R", "assay_type": "cell-based", "details": "VPAC2-stimulated", "source_text": "Transfected Chinese hamster ovary (CHO) cell lines were acquired and maintained as previously described, [20]. These included separate cell lines stably expressing human GCGR (hGCGR), mouse GCGR, rhesus GGCR, glucose-dependent insulinotropic peptide receptor (GIPR), GLP-1 receptor (GLP-1R), pituitary adenylate cyclase-activating polypeptide receptor type 1 (PAC1R), and vasoactive adenylate cyclase-activating polypeptide receptor type 2 (VPAC2R). Inhibition of glucagon binding to hGCGR was assayed in cell membranes prepared from the line of CHO cells that expressed the hGCGR. Functional antagonism was assayed by measuring the production of cAMP in intact CHO cells stimulated by agonists specific for their cognate receptors (i.e., glucagon for GCGR-expressing cell lines, GIP for the GIPR-expressing line, etc.). Primary human hepatocytes were obtained from In Vitro Technologies (Baltimore, MD) and glucagon-stimulated glycogenolysis was studied in these as previously described."}, "rhesus GCGR": {"target": "T3, rhesus GCGR (Macaca mulatta, UniProt A0A1D5QZY8)", "T3 construct": "expressed in transfected cells", "T3 sequence (A0A1D5QZY8 27-491)": "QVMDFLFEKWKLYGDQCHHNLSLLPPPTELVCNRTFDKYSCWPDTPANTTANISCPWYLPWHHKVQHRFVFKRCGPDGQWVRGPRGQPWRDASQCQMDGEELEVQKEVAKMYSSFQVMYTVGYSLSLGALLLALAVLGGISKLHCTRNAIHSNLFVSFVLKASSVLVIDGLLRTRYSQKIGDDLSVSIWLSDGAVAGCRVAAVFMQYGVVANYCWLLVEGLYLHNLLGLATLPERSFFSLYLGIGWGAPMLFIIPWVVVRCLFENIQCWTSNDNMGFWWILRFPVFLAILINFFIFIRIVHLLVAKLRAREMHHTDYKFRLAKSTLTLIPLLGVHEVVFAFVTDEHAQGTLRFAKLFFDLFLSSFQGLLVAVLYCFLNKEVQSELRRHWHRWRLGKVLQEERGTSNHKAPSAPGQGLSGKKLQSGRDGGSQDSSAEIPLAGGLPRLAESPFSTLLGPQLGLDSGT", "assay": "Inhibition of glucagon-stimulated cAMP production in CHO cells expressing rhesus GCGR", "assay_type": "cell-based", "method": "Transfected Chinese hamster ovary (CHO) cell lines were acquired and maintained as previously described [17], [20]. These included separate cell lines stably expressing human GCGR (hGCGR), mouse GCGR, rhesus GGCR, glucose-dependent insulinotropic peptide receptor (GIPR), GLP-1 receptor (GLP-1R), pituitary adenylate cyclase-activating polypeptide receptor type 1 (PAC1R), and vasoactive adenylate cyclase-activating polypeptide receptor type 2 (VPAC2R). […] Functional antagonism was assayed by measuring the production of cAMP in intact CHO cells stimulated by agonists specific for their cognate receptors (i.e., glucagon for GCGR-expressing cell lines, GIP for the GIPR-expressing line, etc.)."}},
  "note": "Read-outs that look alike come from different tables or passages of the source.",
  "data": [
    {"smiles": "COc1ccc2cc(-c3cc(-c4cc(C(F)(F)F)ccc4F)nn3[C@@H](C)c3ccc(C(=O)NCCC(=O)O)cc3)ccc2c1", "note": "[GRA1, N-[4-((1S)-1-{3-(2-fluoro-5-trifluoromethylphenyl)-5-[6-methoxynaphth-2-yl]-1H-pyrazol-1-yl}ethyl)benzoyl]-β-alanine]", "values": [
      {"measurement": "AASS (aminoadipate-semialdehyde synthase) hepatic expression, fold difference vs vehicle", "setting": "rhesus monkey liver; Day 1", "result": "−2.0", "unit": "fold"},
      {"measurement": "AGXT2L1 hepatic expression, fold difference vs vehicle", "setting": "rhesus monkey liver; Day 1", "result": "−1.5", "unit": "fold"},
      {"measurement": "ASL (argininosuccinate lyase) hepatic expression, fold difference vs vehicle", "setting": "rhesus monkey liver; Day 1", "result": "−1.5", "unit": "fold"},
      {"measurement": "BCKDHB hepatic expression, fold difference vs vehicle", "setting": "rhesus monkey liver; Day 1", "result": "−1.4", "unit": "fold"},
      {"measurement": "DDC (dopa decarboxylase) hepatic expression, fold difference vs vehicle", "setting": "rhesus monkey liver; Day 1", "result": "−1.4", "unit": "fold"},
      {"measurement": "FH (fumarate hydratase) hepatic expression, fold difference vs vehicle", "setting": "rhesus monkey liver; Day 1", "result": "−1.2", "unit": "fold"},
      {"measurement": "GCKR (glucokinase regulator) hepatic expression, fold difference vs vehicle", "setting": "rhesus monkey liver; Day 1", "result": 1.5, "unit": "fold"},
      {"measurement": "GPT (alanine aminotransferase) hepatic expression, fold difference vs vehicle", "setting": "rhesus monkey liver; Day 1", "result": "−1.5", "unit": "fold"},
      {"measurement": "HPD (4-hydroxyphenylpyruvate dioxygenase) hepatic expression, fold difference vs vehicle", "setting": "rhesus monkey liver; Day 1", "result": "−1.3", "unit": "fold"},
      {"measurement": "KMO (kynurenine 3-monooxygenase) hepatic expression, fold difference vs vehicle", "setting": "rhesus monkey liver; Day 1", "result": "−1.3", "unit": "fold"},
      {"measurement": "OAT (ornithine aminotransferase) hepatic expression, fold difference vs vehicle", "setting": "rhesus monkey liver; Day 1", "result": "−1.9", "unit": "fold"},
      {"measurement": "SDS (serine dehydratase) hepatic expression, fold difference vs vehicle", "setting": "rhesus monkey liver; Day 1", "result": "−8.8", "unit": "fold"},
      {"measurement": "SDSL (serine dehydratase-like) hepatic expression, fold difference vs vehicle", "setting": "rhesus monkey liver; Day 1", "result": "−1.6", "unit": "fold"},
      {"measurement": "SLC7A2 hepatic expression, fold difference vs vehicle", "setting": "rhesus monkey liver; Day 1", "result": "−1.8", "unit": "fold"},
      {"measurement": "TAT (tyrosine aminotransferase) hepatic expression, fold difference vs vehicle", "setting": "rhesus monkey liver; Day 1", "result": "−1.8", "unit": "fold"},
      {"measurement": "ARG1 (arginase, liver) hepatic expression, fold difference vs vehicle", "setting": "rhesus monkey liver; Day 1 (ns)", "result": "−1.1", "unit": "fold"},
      {"measurement": "GCK (glucokinase) hepatic expression, fold difference vs vehicle", "setting": "rhesus monkey liver; Day 1 (ns)", "result": 2.4, "unit": "fold"},
      {"measurement": "GLS2 (glutaminase 2) hepatic expression, fold difference vs vehicle", "setting": "rhesus monkey liver; Day 1 (ns)", "result": "−1.3", "unit": "fold"},
      {"measurement": "GOT1 hepatic expression, fold difference vs vehicle", "setting": "rhesus monkey liver; Day 1 (ns)", "result": "−1.5", "unit": "fold"},
      {"measurement": "PAH (phenylalanine hydroxylase) hepatic expression, fold difference vs vehicle", "setting": "rhesus monkey liver; Day 1 (ns)", "result": "−1.5", "unit": "fold"},
      {"measurement": "SLC1A2 hepatic expression, fold difference vs vehicle", "setting": "rhesus monkey liver; Day 1 (ns)", "result": "−1.6", "unit": "fold"},
      {"measurement": "AASS (aminoadipate-semialdehyde synthase) hepatic expression, fold difference vs vehicle", "setting": "rhesus monkey liver; Day 6", "result": "−3.0", "unit": "fold"},
      {"measurement": "AGXT2L1 hepatic expression, fold difference vs vehicle", "setting": "rhesus monkey liver; Day 6", "result": "−1.8", "unit": "fold"},
      {"measurement": "ARG1 (arginase, liver) hepatic expression, fold difference vs vehicle", "setting": "rhesus monkey liver; Day 6", "result": "−1.3", "unit": "fold"},
      {"measurement": "ASL (argininosuccinate lyase) hepatic expression, fold difference vs vehicle", "setting": "rhesus monkey liver; Day 6", "result": "−1.6", "unit": "fold"},
      {"measurement": "BCKDHB hepatic expression, fold difference vs vehicle", "setting": "rhesus monkey liver; Day 6", "result": "−1.3", "unit": "fold"},
      {"measurement": "FH (fumarate hydratase) hepatic expression, fold difference vs vehicle", "setting": "rhesus monkey liver; Day 6", "result": "−1.2", "unit": "fold"},
      {"measurement": "GCK (glucokinase) hepatic expression, fold difference vs vehicle", "setting": "rhesus monkey liver; Day 6", "result": 5.4, "unit": "fold"},
      {"measurement": "GCKR (glucokinase regulator) hepatic expression, fold difference vs vehicle", "setting": "rhesus monkey liver; Day 6", "result": 1.3, "unit": "fold"},
      {"measurement": "GLS2 (glutaminase 2) hepatic expression, fold difference vs vehicle", "setting": "rhesus monkey liver; Day 6", "result": "−1.6", "unit": "fold"},
      {"measurement": "GOT1 hepatic expression, fold difference vs vehicle", "setting": "rhesus monkey liver; Day 6", "result": "−2.1", "unit": "fold"},
      {"measurement": "GPT (alanine aminotransferase) hepatic expression, fold difference vs vehicle", "setting": "rhesus monkey liver; Day 6", "result": "−1.3", "unit": "fold"},
      {"measurement": "HPD (4-hydroxyphenylpyruvate dioxygenase) hepatic expression, fold difference vs vehicle", "setting": "rhesus monkey liver; Day 6", "result": "−1.2", "unit": "fold"},
      {"measurement": "KMO (kynurenine 3-monooxygenase) hepatic expression, fold difference vs vehicle", "setting": "rhesus monkey liver; Day 6", "result": "−1.5", "unit": "fold"},
      {"measurement": "OAT (ornithine aminotransferase) hepatic expression, fold difference vs vehicle", "setting": "rhesus monkey liver; Day 6", "result": "−3.6", "unit": "fold"},
      {"measurement": "PAH (phenylalanine hydroxylase) hepatic expression, fold difference vs vehicle", "setting": "rhesus monkey liver; Day 6", "result": "−2.1", "unit": "fold"},
      {"measurement": "SDS (serine dehydratase) hepatic expression, fold difference vs vehicle", "setting": "rhesus monkey liver; Day 6", "result": "−27.1", "unit": "fold"},
      {"measurement": "SLC1A2 hepatic expression, fold difference vs vehicle", "setting": "rhesus monkey liver; Day 6", "result": "−7.6", "unit": "fold"},
      {"measurement": "SLC7A2 hepatic expression, fold difference vs vehicle", "setting": "rhesus monkey liver; Day 6", "result": "−2.4", "unit": "fold"},
      {"measurement": "DDC (dopa decarboxylase) hepatic expression, fold difference vs vehicle", "setting": "rhesus monkey liver; Day 6 (ns)", "result": "−1.1", "unit": "fold"},
      {"measurement": "SDSL (serine dehydratase-like) hepatic expression, fold difference vs vehicle", "setting": "rhesus monkey liver; Day 6 (ns)", "result": "−1.5", "unit": "fold"},
      {"measurement": "TAT (tyrosine aminotransferase) hepatic expression, fold difference vs vehicle", "setting": "rhesus monkey liver; Day 6 (ns)", "result": "−1.7", "unit": "fold"},
      {"measurement": "receptor occupancy at 3 mg/kg", "setting": "hepatic hGCGR; 30 days food admixture, 3 mg/kg·day, read-out: Receptor occupancy", "result": 71, "unit": "%"},
      {"measurement": "receptor occupancy at 6 mg/kg", "setting": "hepatic hGCGR; 30 days food admixture, 6 mg/kg·day", "result": 78, "unit": "%"},
      {"measurement": "receptor occupancy at 10 mg/kg", "setting": "hepatic hGCGR; 30 days food admixture, 10 mg/kg·day", "result": 83, "unit": "%"},
      {"measurement": "receptor occupancy at 30 mg/kg", "setting": "hepatic hGCGR; 30 days food admixture, 30 mg/kg·day", "result": 93, "unit": "%"},
      {"measurement": "receptor occupancy at 3 mg/kg", "setting": "hepatic hGCGR; po, single oral dose 3 mg/kg, 1 h postdose, read-out: Receptor occupancy", "result": 64, "unit": "%"},
      {"measurement": "receptor occupancy at 3 mg/kg", "setting": "hepatic hGCGR; po, single oral dose 3 mg/kg, 3 h postdose, read-out: Receptor occupancy", "result": 71, "unit": "%"},
      {"measurement": "receptor occupancy at 3 mg/kg", "setting": "hepatic hGCGR; po, single oral dose 3 mg/kg, 5 h postdose, read-out: Receptor occupancy", "result": 65, "unit": "%"},
      {"measurement": "receptor occupancy at 3 mg/kg", "setting": "hepatic hGCGR; po, single oral dose 3 mg/kg, 8 h postdose, read-out: Receptor occupancy", "result": 73, "unit": "%"},
      {"measurement": "receptor occupancy at 3 mg/kg", "setting": "hepatic hGCGR; po, single oral dose 3 mg/kg, for 1–8 h, read-out: Reduction of in vivo occupancy of hepatic hGCGR by 125I-glucagon", "result": "64 to 73", "unit": "%"},
      {"measurement": "IC50", "setting": "[1]", "result": 4200, "unit": "nM"},
      {"measurement": "IC50", "setting": "rhesus GCGR", "result": 15, "unit": "nM"}
    ]}
  ]
}
